Laboratory results published in patent publication US20210059983A1, “METHODS AND MATERIALS FOR IDENTIFYING AND TREATING CANCER” (Mayo Foundation for Medical Education and Research, priority 2018, published 2021).
Entries after “also recorded” stand apart in the source; their conditions may differ.

How the values were obtained:
RCC (786O) cells = assay: Cell viability (Cell Titer Blue); type: cell-based
Experimental: Cells were incubated at varying concentrations and at various time periods with L-ascorbic acid (Sigma-Aldrich, Cat #50-81-7) with or without catalase at 100 μg/mL (Sigma-Aldrich, Cat #9001-05-2). Viability was assessed by addition of Cell Titer Blue (Promega, Madison, Wis., USA) and measured via Fluostar Omega Microplate reader (BMG Labtech, Offenburg, Germany). […] A protocol modification to counter this interference was done as described elsewhere (Shenoy et al., Laboratory Investigation, 97:494-497 (2017)) and used in this study.

[1] = tested on: ccRCC cells (786 and 769); assay: Genome wide DNA methylation analysis using the HELP assay; type: cell-based, human
Experimental: The HELP assay was carried out as described elsewhere ([…] et al., Nucleic Acids Res., 41(16):e157 (2013)). Intact DNA of high molecular weight was corroborated by electrophoresis on 1% agarose gel in all cases. One microgram of genomic DNA was digested overnight with either HpaII or MspI (NEB, Ipswich, Mass.). The following day, the reactions were extracted once with phenol-chloroform and resuspended in 11 μL of 10 mM Tris-HCl pH 8.0. The digested DNA was used to set up an overnight ligation of the JHpaII adapter using T4 DNA ligase. The adapter-ligated DNA was used to carry out the PCR amplification of the HpaII and MspI-digested DNA as described elsewhere ([…] et al., Nucleic Acids Res., 41(16):e157 (2013)). Both amplified fractions were submitted for labeling and hybridization onto a human hg18 custom-designed oligonucleotide array (50-mers) covering 1.3 million HpaII amplifiable fragments (HAF). All microarray hybridizations were subjected to extensive quality control. Uniformity of hybridization was evaluated using a modified version of an algorithm adapted for the NimbleGen platform, and any hybridization with strong regional artifacts was discarded. Bioinformatic analysis was done as described elsewhere (Bhattacharyya et al., Nucleic Acids Res., 41(16):[…] (2013); Suzuki et al., Genome Biol., 11(4):[…] (2010)).

786-O cells [2] = assay: Flow cytometry for apoptosis (Annexin V/PI); type: cell-based; details: AA 1 mM + catalase, assay at 96 hour time point
Experimental: (§1) 786-O cells were treated with high dose ascorbic acid (+catalase), and apoptosis and cell cycle dynamics were studied at the 96 hour time point. Cells were washed with Annexin buffer solution and stained with both propidium iodide (PI) and FITC-Annexin V (Life Technologies), and assayed on a BD FACS Calibur flow cytometer (BD Biosciences). Apoptosis results were analyzed with BD CellQuest software. For cell cycle analysis, cells were fixed with 70% cold ethanol and subsequently analyzed after PI staining. Analysis was performed using FlowJo software.

RCC cells 769P = assay: Measurement of 5hmC levels by LC-ESI-MS/MS; type: cell-based; details: 769P cells after AA treatment
[3] = tested on: RCC cells (786O) xenografted; assay: In vivo xenograft study with AA; parameters: species or system immunodeficient NSG mice; details: IV AA 1 g/kg per day, 5 days/week, 5 weeks, vs vehicle; n=10 per cohort
Experimental: RCC cells (786O) were xenografted into immunodeficient NSG mice. After tumors were established, treatment was initiated with tail vein injections: IV AA at 1 g/kg/d or vehicle over 5 weeks (5 days dosing/week), and tumor measurements were conducted.

[4] = tested on: TET enzymatic activity in RCC cells (769P and 7860); assay: In-vitro TET enzymatic activity of nuclear extracts from AA treated RCC cells (ELISA-based Epigenase 5mC Hydroxylase TET Activity kit); details: pH neutralized AA, ccRCC cell lines 769P and 7860, short exposure then 24 hour incubation in fresh media
Experimental: Cells were treated with different concentrations of pH neutralized AA, with or without catalase. Exposure time to 1 mM AA was 2 hours (taking into account the plasma concentration curve with intravenous (i.v.) AA and potential differences between plasma concentrations with that of tumor microenvironment) followed by the cells being washed and incubated in fresh media for 24 hours. Nuclear protein was then isolated from cells using the EpiQuik nuclear extraction kit (Epigentek Group Inc, Farmingdale, N.Y., USA), according to the manufacturer's instructions. TET enzymatic activity was measured by using the Enzyme Linked ImmunoSorbent Assay (ELISA)-based Epigenase 5mC Hydroxylase TET Activity/Inhibition Assay Kit (Fluorometric) according to the manufacturer's instructions. This technique relied on the conversion of methylated products at the bottom of the wells to hydroxymethylated products by the TET enzyme present in the nuclear extract. Thus, the amount of hydroxymethylated products formed was a measure of the TET activity of the nuclear extract harvested from the cells being tested. Incubation time of nuclear lysates was 90 minutes. Six micrograms of nuclear lysate was used per well for measurement of TET activity.

[5] = molecular target: recombinant TET-2 protein (Homo sapiens, UniProt Q6N021); assay: Fluorescence quenching of recombinant TET-2 protein (Stern-Volmer); type: binding
Experimental: The step width was 1 nm, and the integration time was 1 second.
All protein solutions contained 0.5 μM TET2 in PBS buffer.
In this equation, KD was the quenching constant, and [Q] was a defined concentration of ascorbic acid. F^0 and F were the fluorescence intensities (at 328 nm) in absence and presence of ascorbic acid, respectively.

786-O cells [6] = assay: Flow cytometry for cell cycle analysis (PI); type: cell-based; details: high dose AA + catalase, 96 hours
Experimental: as §1

[7] = 0.5 μM TET-2 alone in PBS, 20° C.

SMILES	viability, acute (short term exposure) (RCC (786O) cells; high dose AA (millimolar), 24 hours, without catalase)	viability at longer time points (RCC (786O) cells; high dose AA with catalase, longer-term exposure)	acute loss in viability with catalase co-treatment (RCC (786O) cells; high dose AA, 24 hours, with catalase 100 μg/mL)	Smad6 promoter methylation ([1]; 786 and 769 ccRCC cells after AA treatment)	global cytosine methylation (HELP assay) ([1]; AA treated vs control ccRCC cells)	apoptosis (786-O cells [2])	5hmC (%5hmC) by LC-ESI-MS/MS (RCC cells 769P)	tumor growth [3]	TET enzymatic activity [4]	quenching efficiency (Stern-Volmer constant +/−SD) [5, 7]	quenching efficiency (Stern-Volmer constant +/−SD) ([5]; 0.5 μM TET-2 in presence of 23 μM 2OG)	quenching efficiency (Stern-Volmer constant +/−SD) ([5]; 0.5 μM TET-2 in presence of 2OG and L2HG (23 μM each per FIG. 5D legend))	quenching efficiency (Stern-Volmer constant +/−SD) ([5]; 0.5 μM TET-2 in presence of L2HG (100 μM per FIG. 5D legend))	reduction of the fluorescence emission signal ([5]; 132 μM AA, 0.5 μM TET-2, emission at 328 nm, excitation 280 nm, maximal quenching)	cell cycle (G0/G1 arrest) (786-O cells [6])
O=C1O[C@H]([C@@H](O)CO)C(O)=C1O [AA, L-ascorbic acid]	Acute loss in viability	reduced viability; also recorded: dose dependent and progressive loss of viability	reversed by catalase treatment	demethylated	increased hypomethylation; also recorded: loss of methylation	increased apoptosis; also recorded: significant increase in apoptosis	significantly increased; also recorded: increase in 5hmC	significantly reduced rate of ccRCC growth; also recorded: significantly delayed tumor growth	increased after treatment; also recorded: increase in TET enzymatic activity	21.46 ± 0.70 M⁻¹	18.37 ± 0.80 M⁻¹	17.34 ± 0.87 M⁻¹	22.17 ± 0.68 M⁻¹	90%	significantly arrested in G0/G1 stage; also recorded: significant increase in G0/G1 arrest
O=C(O)CCC(=O)C(=O)O [2OG]										15.66 ± 0.12 M⁻¹					
